Values of other authors as cited in patent publication US20050065133A1, “Pharmaceutical compositions and methods comprising combinations of 2-alkylidene-19-nor-vitamin D derivatives and an EP2 or EP4 selective agonist” (Pfizer Inc, priority 2003, published 2005).
Like-named read-outs stand apart in the source and are kept apart here.

Key:
Male weanling rats = settings: for Serum Calcium (mg/100 ml): intraperitoneal, vitamin D-deficient low-calcium diet, 24 h after last dose, mean ± SEM
[1] = tested on: Male Holtzman strain weanling rats; settings: single intrajugular injection, 650 pmol, 24 h later, mean ± SEM

SMILES	Serum Calcium (mg/100 ml) (Male weanling rats; 130 pmol/day/7 days)	Serum Calcium (mg/100 ml) (Male weanling rats; 260 pmol/day/7 days)	Serum Calcium (mg/100 ml) [1] [mg/100 ml]	selectivity for bone calcium mobilization over intestinal calcium transport, in words (Male weanling rats; chronic 7-day dosing)	bone calcium mobilization activity relative to 1,25-(OH)2D3 (Male weanling rats; chronic 7-day dosing, stated as likely)	bone calcium mobilization, in words (Male weanling rats; given for 7 days in a chronic mode, 130 and 260 pmol/day)	inducing differentiation of HL-60 cells to the monocyte, in words (HL-60 cells)	Serum Calcium (mg/100 ml) (Male weanling rats; 260 pmol/day/7 days, listed as 2-methylene-19-nor-20S-1,25-(OH)2D3)
C=C1/C(=C\C=C2/CCC[C@]3(C)[C@@H]([C@H](C)CCCC(C)(C)O)CC[C@@H]23)C[C@@H](O)C[C@@H]1O [1,25-(OH)2D3, 1,25-dihydroxyvitamin D3, reference compound]	13.8	7.2 ± 0.5	5.7 ± 0.2					
C=C1[C@H](O)CC(=C/C=C2\CCC[C@]3(C)[C@@H]([C@H](C)CCCC(C)(C)O)CC[C@@H]23)C[C@H]1O [2-Methylene-19-Nor-1,25-(OH)2D3, 1α,25-dihydroxy-2-methylene-19-nor-vitamin D3]	9.9 ± 0.2	9.6 ± 0.3	6.4 ± 0.1	selective for the mobilization of calcium from bone	10-100 times	extremely strong	activity similar to 1,25-(OH)2D3	
C=C1[C@H](O)CC(=C/C=C2\CCC[C@]3(C)[C@@H]([C@@H](C)CCCC(C)(C)O)CC[C@@H]23)C[C@H]1O [2-Methylene-19-Nor-20S-1,25-(OH)2D3, (20S)-1α,25-dihydroxy-2-methylene-19-nor-vitamin D3]	13.8 ± 0.5	14.4 ± 0.6	8.0 ± 0.1	selective for the mobilization of calcium from bone			extremely potent	14
